Assay results reported in paper PMC10724200, “A peptide derived from interleukin-10 exhibits potential anticancer activity and can facilitate cell targeting of gold nanoparticles loaded with anticancer therapeutics” (Communications Chemistry, 2023).
Ends that are not written are not given here.

Assays:
IL-1R1 = molecular target: T1, IL-1R1 (Homo sapiens, UniProt P14778); assay: Biolayer interferometry kinetic assay, binding to control receptor IL-1R1; settings: read-out: ka (association constant)
T1 sequence (P14778 18-569): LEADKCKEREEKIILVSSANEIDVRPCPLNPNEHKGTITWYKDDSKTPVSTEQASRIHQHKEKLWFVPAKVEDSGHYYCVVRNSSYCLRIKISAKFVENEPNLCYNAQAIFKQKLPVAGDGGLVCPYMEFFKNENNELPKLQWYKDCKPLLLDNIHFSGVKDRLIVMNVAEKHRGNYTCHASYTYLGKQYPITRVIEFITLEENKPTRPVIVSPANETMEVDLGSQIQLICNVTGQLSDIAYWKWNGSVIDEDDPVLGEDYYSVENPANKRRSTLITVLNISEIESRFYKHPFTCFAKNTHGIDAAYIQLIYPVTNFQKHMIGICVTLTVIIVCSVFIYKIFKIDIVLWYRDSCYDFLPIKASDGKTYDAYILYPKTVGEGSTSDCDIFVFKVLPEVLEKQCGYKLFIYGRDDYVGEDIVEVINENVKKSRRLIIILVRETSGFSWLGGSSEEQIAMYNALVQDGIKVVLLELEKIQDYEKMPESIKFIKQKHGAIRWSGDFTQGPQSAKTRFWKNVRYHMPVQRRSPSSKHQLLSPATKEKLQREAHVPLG
Description: (§1) Biolayer interferometry (BLI) was applied to analyze peptide–receptor protein interactions. BLI was performed with a ForteBio Octet RED96e System (Sartorius AG, Göttingen, Germany) by using high-precision streptavidin and biosensors. The biosensors were hydrated in a plate for 15 min and then loaded with 10 μg/mL recombinant receptor human IL-10Ra protein and incubated for 150 s. […] After the association step, the biosensor was shifted to the dissociation buffer, phosphate-buffered saline (PBS) with 0.05% Tween20, for dissociation. Dissociation was recorded until equilibrium was reached (120 s).
To measure the binding ability of the designed and negative control peptides (NM25, NK20, NK20a, and control scramble peptide CG20) to the receptor IL-10Ra in vitro, BLI experiments were performed. […] When binding with IL-10Ra, the association constant (ka) of NK20 and NK20a was 1.02 × 10^4 (1/Ms) and 8.14 × 10^3 (1/Ms), respectively. […] The equilibrium dissociation constant (KD) of NK20a interactions with IL-1R1was approximately 2000 times greater than that with IL-10Ra, and the calculated dissociation constant of NK20a interactions with IL-1R1 was to be 5000 times greater than that with IL-10Ra interactions (Table 2). […]
Fig. 3 BLI kinetic assays of the designed peptides binding to the receptor IL-10Ra. […] Dissociation was recorded at 120 s after the binding started (black dotted line).

[1] = molecular target: T2, recombinant receptor human IL-10Ra protein (Homo sapiens, UniProt Q13651); assay: Biolayer interferometry kinetic assay, binding to IL-10Ra; settings: read-out: ka (association constant)
T2 sequence (Q13651 22-578): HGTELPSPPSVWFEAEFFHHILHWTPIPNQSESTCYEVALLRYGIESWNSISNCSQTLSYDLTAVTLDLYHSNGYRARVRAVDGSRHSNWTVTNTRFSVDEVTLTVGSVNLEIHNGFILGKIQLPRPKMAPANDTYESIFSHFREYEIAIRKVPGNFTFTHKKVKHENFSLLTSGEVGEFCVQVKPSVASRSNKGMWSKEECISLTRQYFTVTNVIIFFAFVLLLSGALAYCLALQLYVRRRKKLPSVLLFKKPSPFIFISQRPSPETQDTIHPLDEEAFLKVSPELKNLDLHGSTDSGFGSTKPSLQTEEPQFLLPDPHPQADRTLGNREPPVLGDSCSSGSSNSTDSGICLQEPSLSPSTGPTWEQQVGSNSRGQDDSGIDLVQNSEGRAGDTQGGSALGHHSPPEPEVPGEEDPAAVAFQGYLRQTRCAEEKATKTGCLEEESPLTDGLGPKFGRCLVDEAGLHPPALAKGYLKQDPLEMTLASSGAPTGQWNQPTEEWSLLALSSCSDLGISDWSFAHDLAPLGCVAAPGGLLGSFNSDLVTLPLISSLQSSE
Description: as §1
To measure the binding ability of the designed and negative control peptides (NM25, NK20, NK20a, and control scramble peptide CG20) to the receptor IL-10Ra in vitro, BLI experiments were performed. […] When binding with IL-10Ra, the association constant (ka) of NK20 and NK20a was 1.02 × 10^4 (1/Ms) and 8.14 × 10^3 (1/Ms), respectively. The ka values of the refined peptides were approximately 12-fold higher than that of NM25. […] The equilibrium dissociation constant (KD) of NK20a interactions with IL-1R1was approximately 2000 times greater than that with IL-10Ra, and the calculated dissociation constant of NK20a interactions with IL-1R1 was to be 5000 times greater than that with IL-10Ra interactions (Table 2). […] As a result, NK20a was used for further investigations in this study.
Fig. 3 BLI kinetic assays of the designed peptides binding to the receptor IL-10Ra. Wavelength shift curves show the association and dissociation of the designed peptides (a) NM25, (b) NK20, (c) NK20a, (d) CG20 binding to the IL-10 receptor, and (e) NK20a binding to a control receptor IL-1R1 at various concentrations. Dissociation was recorded at 120 s after the binding started (black dotted line).

NMLRNLRNAFSRVKTFFQMK [NK20a]
kon (IL-1R1): 18300 M⁻¹ s⁻¹
kon [1]: 8140 M⁻¹ s⁻¹
